The subject of one series is B6 mice. The note with it: unpublished data.
The next series concerns B6 mice with EAE. Briefly: Inflammation, demyelination and remyelination in lumbar spinal cord of E2 137-151 treated EAE mice. The series is classed as in vivo. An excerpt: All figures come from one micron epoxy sections taken from brain tissues, fixed in 2.5% glutaraldehyde/1% osmium tetroxide, embedded in epoxy resin, stained with toluidine blue and photographed by light microscopy.
In order to be able to detect the de- and remyelination accurately, at the end of the experiment, mice will be sacrificed by an overdose of sodium pentobarbital and perfused by intracardiac puncture with Trumps fixative, containing 4% paraformaldehyde and 1% glutaraldehyde. Brains and spinal cords are removed and post fixed in osmium textroxide. Each brain is sectioned coronally into three pieces by cuts through infandibulum and optic chiasm. Spinal cord tissues will be also harvested and processed. Every third block (10-12 blocks per spinal cord, cervical to lumbar range) will be embedded, along with brain sections, in Araldite plastic. The embedded tissues will be cross-sectioned at 1 μm thickness, and the slides stained with toluidine blue or 4% paraphenylenediamine to highlight the myelin sheets. We have studied the one-micron thin sections of the brains of SFV-infected WT and KO on days of 21-42 postinfection.
In order to be able to analyze de- and remyelination accurately in untreated and E2 137-151 treated LAE mice, one micron sections of lumbar spinal cords of all mice, were analyzed as described above for SFV-infected mice, on different days post immunization. […] Widespread Wallerian degeneration evidenced by dilated and collapsed myelin sheaths, some containing axonal remnants, was also observed. Cellular infiltration was present within the meningeal space as well. […] Spinal cord white matter of normal control mice is also shown for comparison (FIG. 8C)

The subject of series [1] is Rabbit Anti-SFV polyclonal antibody. Briefly: Indirect ELISA of rabbit anti-SFV polyclonal IgG against viral and myelin antigens. The series is classed as binding. On the procedure:
The total IgG fraction was commercially prepared (Strategic Biosolutions, Ramona, Calif.) from pooled sera of 3 rabbits immunized once with UV-inactivated SFV (A774 strain) emulsified in CFA and boosted 3 times with antigen in IFA at weeks 3, 5, and 7. The IgG fraction of the pooled antisera was purified by ion-exchange chromatography and contained 8.7 mg IgG/ml of PBS. Antibody activities to SFV and peptides of SFV, to E2, and to recombinant ® MOG and its peptides were confirmed by ELISA. Normal rabbit IgG, isolated from pooled normal rabbit sera by ion-exchange chromatography (Signa Chemical Co., St. Louis, Mo.), was dissolved in saline. Protein concentration was determined by the Bradford assay (Sigma), using normal rabbit IgG as the standard. The IgG solutions were diluted to 3 mg protein/ml in saline and sterilized by passage through a 0.22 μm filter (Millipore Corp., Bedford, Mass.).
To measure the antibody response of both WT and γδ KO mice against SFV and two of the peptides of the SFV envelope protein, E2, an indirect ELISA was performed. Sera were pooled from 4-6 SFV-infected WT, and 3 KO, mice on days 0, 7, 14, 21 and 35 pi. Briefly, Immunolon 2HB 96 well microtiter plates (VWR, Bridge Port, N.J.) were coated with 1 μg/well of each antigen in 100 μl/well carbonate buffer overnight at room temperature. After washing, the plates were blocked and serum samples were added. […] After washing, biotinylated goat anti-mouse Igs (BD Pharmingen, Torreyana, Calif.), Strepavidin conjugated to Horse Radish Peroxidase (Vector Laboratories, Burlingame, Calif.), and OPD substrate (Sigma, St. Louis, Mo.) were used, as previously described (4, 9). […] Values were considered to be positive when they were >0.3 OD units and exceeded the mean value plus three standard deviations for antibody response on day 0 pi of mice of the same strain.
The polyclonal rabbit anti SFV antibody was commercially prepared (Strategic Biosolutions, Ramona, Calif.) from pooled sera of 3 rabbits, immunized once with UV-inactivated SFV (A774 strain) emulsified in CFA and boosted 3 times with antigen in IFA at weeks 3, 5, and 7.
A general note: An ELISA detects its analyte on a solid surface through an enzyme-linked reagent.

In series [2] the test system is SFV-infected TCR γδ-KO and WT mice. Nature of the series: Clinical scores of SFV-infected, E2 137-151 immunized TCR γδ-KO and WT mice. Conditions: 0.5 mg/injection (25 mg/kg) sc in IFA, scale 0-VI. The series is classed as in vivo. On the procedure:
FIG. 5 Comparison of Clinical Scores (±SEM) of SFV-infected E2 137-151 peptide-immunized, and non-immunized TCR γδ-KO and WT mice, on different days post infection. Data shown is the average of two experiments with a total of 15 WT, 15 KO mice, and 10 immunized KO mice (only 5-10 KO mice could be obtained at each time point). SFV-infected KO mice were immunized subcutaneously with E2 137-151 (0.5 mg/injection or 25 mg/kg, based on the average weight of 20 g/mouse) in IFA, one day after SFV-infection. Additional inoculations of E2 137-151/IFA were performed on days 5, 15, and 20. Mice were sacrificed on days 7, 15, 21, and 35 pi. Clinical scores of sacrificed and dead animals have been considered in average calculation until the end of experiments on day 35. […] Data from E2-137-immunized WT mice is not shown (p=NS).
Method—Five-week old C57B16 (B6) WT and KO mice (Jackson Laboratories, Bar Harbor, Mass.) were infected with SFV, and KO mice were immunized subcutaneously with E2-137-151 (0.5 mg/injection or 25 mg/kg, based on the average weight of 20 g/mouse) in IFA, one day after SFV-infection. Additional inoculations of E2 137-151/IFA were performed on days 5 and 15 for KO mice only. Animals were observed daily for clinical manifestations of disease and were scored on a scale of 0-VI. 0=no abnormality; I-mild hind limb weakness (some difficulty righting themselves when turned on their back); II=moderate hind limb weakness, sometimes associated with floppy tail; III=weakness of hind limbs accompanied by some forelimb weakness, sometimes more marked on one limb or one side, but not complete paralysis; IV=hind limb paresis accompanied by mild forelimb weakness; V=paralysis of hind limbs, associated with moderate forelimb weakness; and VI=quadriplegia, moribund.

Each structure is given as a SMILES string. Entries after “also recorded” stand apart in the source; their conditions may differ.

For `CC[C@H](C)[C@H](NC(=O)[C@H](CCC(=O)O)NC(=O)[C@H](CCCCN)NC(=O)CNC(=O)[C@H](Cc1ccc(O)cc1)NC(=O)[C@H](Cc1c[nH]cn1)NC(=O)[C@@H]1CCCN1C(=O)[C@H](CCCNC(=N)N)NC(=O)[C@@H](NC(=O)[C@@H](NC(=O)[C@H](Cc1ccccc1)NC(=O)[C@H](CCCCN)NC(=O)[C@H](CCC(=O)O)NC(=O)[C@H](CCCNC(=N)N)NC(=O)CN)[C@@H](C)O)[C@@H](C)CC)C(=O)O` [E2 137-151], the “Histopathology after inoculation with the peptide” value in the series on B6 mice is “did not cause histopathology”. In addition, the “Wallerian degeneration in lumbar spinal cord” value in the series on B6 mice with EAE (day 33) was “No wallerian degeneration”. For the same molecule, in the series with B6 mice with EAE (day 33 pi), the “Inflammation in lumbar spinal cord” value was “little to no inflammation; also recorded: No wallerian degeneration and inflammation is present”. Also, the “Remyelination in spinal cord” value in the series on B6 mice with EAE (day 33 pi) is reported as “some remyelinating fibers; also recorded: some fibers display remyelination”; in the series on B6 mice with EAE (day 33 pi, listed as E2 137-151 peptide), “induced remyelination”. For the same molecule, the “Rabbit Anti-SFV Ab, OD at 490 nm” value in series [1] (10^−2 diluted, indirect ELISA) is recorded as 1.107 OD. In addition, in series [1] (ELISA), the “Immunoreactivity of IgG fraction of serum from rabbits immunized with UV-inactivated SFV” value is on record as “strong immunoreactivity”. Besides, the “OD Difference” value in series [1] (Rabbit Anti-SFV Ab minus Normal Rabbit Serum) stood at 0.934 OD. Also, the “Average clinical score / severity of disease, immunized KO compared with non-immunized KO mice” value in series [2] (listed as E2 137-151 peptide, 25 mg/kg) is on record as “significantly suppressed”; in series [2] (listed as E2-137, 25 mg/kg), “nonimmunized <E2-137 immunized KO mice”; in series [2] (listed as E2-137-151, 25 mg/kg), “decreased significantly”.

These data come from patent publication US20090311246A1, “Method of Enhancing Remyelination in Demyelinating Diseases of the Central Nervous System” (priority 2008, published 2009).
